Earlier results on 3 molecules are cited in publication PMC8288134, “Synthesis, potential antitumor activity, cell cycle analysis, and multitarget mechanisms of novel hydrazones incorporating a 4-methylsulfonylbenzene scaffold: a molecular docking study” (Journal of Enzyme Inhibition and Medicinal Chemistry, 2021).

One data set has as its system SK-MEL-2. Details: method as in https://dtp.cancer.gov/dtpstandard/dwindex/index.jsp. Particulars: reference drugs, ref https://dtp.cancer.gov/dtpstandard/dwindex/index.jsp; cited from earlier work.
The next data set concerns A498. Details: method as in https://dtp.cancer.gov/dtpstandard/dwindex/index.jsp. Particulars: reference drugs, ref https://dtp.cancer.gov/dtpstandard/dwindex/index.jsp; cited from earlier work.
Data set [1] relates to ovarian cancer tumour cell lines. To be noted: cited from earlier work; for GI50: read-out: GI50 (subpanel average), reference drugs, ref https://dtp.cancer.gov/dtpstandard/dwindex/index.jsp; for CC50: read-out: LC50 (subpanel average), reference drugs, ref https://dtp.cancer.gov/dtpstandard/dwindex/index.jsp; for TGI (subpanel average): reference drugs, ref https://dtp.cancer.gov/dtpstandard/dwindex/index.jsp.

A further data set concerns NCI/ADR-RES. Details: method as in https://dtp.cancer.gov/dtpstandard/dwindex/index.jsp. To be noted: reference drugs, ref https://dtp.cancer.gov/dtpstandard/dwindex/index.jsp; cited from earlier work.
Data set [2] deals with colon cancer tumour cell lines. To be noted: cited from earlier work; for GI50: read-out: GI50 (subpanel average), reference drugs, ref https://dtp.cancer.gov/dtpstandard/dwindex/index.jsp; for CC50: read-out: LC50 (subpanel average), reference drugs, ref https://dtp.cancer.gov/dtpstandard/dwindex/index.jsp; for TGI (subpanel average): reference drugs, ref https://dtp.cancer.gov/dtpstandard/dwindex/index.jsp.

The test system of the next data set is NCI-H226. Details: method as in https://dtp.cancer.gov/dtpstandard/dwindex/index.jsp. To be noted: reference drugs, ref https://dtp.cancer.gov/dtpstandard/dwindex/index.jsp; cited from earlier work.
A further data set deals with 786-0. Details: method as in https://dtp.cancer.gov/dtpstandard/dwindex/index.jsp. Particulars: reference drugs, ref https://dtp.cancer.gov/dtpstandard/dwindex/index.jsp; cited from earlier work.
The test system of the next data set is OVCAR-4. Details: method as in https://dtp.cancer.gov/dtpstandard/dwindex/index.jsp. To be noted: reference drugs, ref https://dtp.cancer.gov/dtpstandard/dwindex/index.jsp; cited from earlier work.
The test system of another data set is SW-620. Details: method as in https://dtp.cancer.gov/dtpstandard/dwindex/index.jsp. To be noted: reference drugs, ref https://dtp.cancer.gov/dtpstandard/dwindex/index.jsp; cited from earlier work.
The test system of a further data set is NCI-H522. Details: method as in https://dtp.cancer.gov/dtpstandard/dwindex/index.jsp. To be noted: reference drugs, ref https://dtp.cancer.gov/dtpstandard/dwindex/index.jsp; cited from earlier work.
A further data set relates to MDA-MB-468. Details: method as in https://dtp.cancer.gov/dtpstandard/dwindex/index.jsp. Particulars: reference drugs, ref https://dtp.cancer.gov/dtpstandard/dwindex/index.jsp; cited from earlier work.
The next data set has as its system KM12. Details: method as in https://dtp.cancer.gov/dtpstandard/dwindex/index.jsp. To be noted: reference drugs, ref https://dtp.cancer.gov/dtpstandard/dwindex/index.jsp; cited from earlier work.
Data set [3] deals with CNS cancer tumour cell lines. Particulars: cited from earlier work; for GI50: read-out: GI50 (subpanel average), reference drugs, ref https://dtp.cancer.gov/dtpstandard/dwindex/index.jsp; for CC50: read-out: LC50 (subpanel average), reference drugs, ref https://dtp.cancer.gov/dtpstandard/dwindex/index.jsp; for TGI (subpanel average): reference drugs, ref https://dtp.cancer.gov/dtpstandard/dwindex/index.jsp.

Another data set relates to SN12C. Details: method as in https://dtp.cancer.gov/dtpstandard/dwindex/index.jsp. To be noted: reference drugs, ref https://dtp.cancer.gov/dtpstandard/dwindex/index.jsp; cited from earlier work.
A further data set relates to LOX IMVI. Details: method as in https://dtp.cancer.gov/dtpstandard/dwindex/index.jsp. Particulars: reference drugs, ref https://dtp.cancer.gov/dtpstandard/dwindex/index.jsp; cited from earlier work.
The next data set relates to MALME-3M. Details: method as in https://dtp.cancer.gov/dtpstandard/dwindex/index.jsp. Particulars: reference drugs, ref https://dtp.cancer.gov/dtpstandard/dwindex/index.jsp; cited from earlier work.
In a further data set the test system is SK-MEL-28. Details: method as in https://dtp.cancer.gov/dtpstandard/dwindex/index.jsp. To be noted: reference drugs, ref https://dtp.cancer.gov/dtpstandard/dwindex/index.jsp; cited from earlier work.
The next data set relates to CAKI-1. Details: method as in https://dtp.cancer.gov/dtpstandard/dwindex/index.jsp. Particulars: reference drugs, ref https://dtp.cancer.gov/dtpstandard/dwindex/index.jsp; cited from earlier work.
In the next data set the test system is A549/ATCC. Details: method as in https://dtp.cancer.gov/dtpstandard/dwindex/index.jsp. Particulars: reference drugs, ref https://dtp.cancer.gov/dtpstandard/dwindex/index.jsp; cited from earlier work.

As to `C#Cc1cccc(Nc2ncnc3cc(OCCOC)c(OCCOC)cc23)c1` [Erlotinib, erlotinib], the GI50 with SK-MEL-2 is 6.31 µM; with A498 it was 2.51 µM; in data set [1] it was 5.52 µM; in the data set on NCI/ADR-RES, 7.94 µM; in data set [2], 51.7 µM; in the data set on NCI-H226, 39.8 µM. The GI50 with 786-0 was 10 µM; in the data set with OVCAR-4, 10 µM; with SW-620, 79.4 µM; with NCI-H522, 1 µM; with MDA-MB-468 it was 0.126 µM; in the data set with KM12 it was 79.4 µM. For the same molecule, the GI50 in [3] is 17 µM; in the data set on SN12C, 1.58 µM; in the data set with LOX IMVI, 6.31 µM; with MALME-3M, 1.58 µM; with SK-MEL-28, 50.1 µM; in the data set on CAKI-1, 0.199 µM. In the data set on A549/ATCC, the GI50 is 10 µM. Moreover, the CC50 is 97.1 µM in data set [1], above 100 µM in data set [2] and above 100 µM in [3]. Moreover, the results for the “TGI (subpanel average)” value in [1], in [2] and in [3] were 74.41 µM, “c (Compounds showed values ≥ 100 µM)” and 82.11 µM, respectively.

On to `CNC(=O)c1cc(Oc2ccc(NC(=O)Nc3ccc(Cl)c(C(F)(F)F)c3)cc2)ccn1` [Sorafenib, sorafenib], for which the GI50 in the data set on SK-MEL-2 was 1.99 µM; in the data set on A498, 2.51 µM; in data set [1] it was 2.89 µM; with NCI/ADR-RES, 2.51 µM; in data set [2], 2.19 µM; in the data set on NCI-H226, 1.99 µM. For the same molecule, the GI50 was 3.16 µM with 786-0; 3.16 µM in the data set on OVCAR-4; 2.51 µM with SW-620; 1.99 µM with NCI-H522; 1.99 µM in the data set with MDA-MB-468; 2.33 µM in [3]. Moreover, the GI50 was 2.51 µM in the data set with SN12C; 1.99 µM with MALME-3M; 2.51 µM with SK-MEL-28; 3.16 µM with CAKI-1; 3.16 µM in the data set with A549/ATCC. Moreover, the CC50 in [1] is 71.3 µM; in data set [2], 38.1 µM; in data set [3], 27.8 µM. The “TGI (subpanel average)” value in data set [1] is recorded as 14.43 µM; in [2], 7.94 µM; in [3], 7.64 µM.

Take `CS(=O)(=O)c1ccc(C(=O)Nc2ccc(Cl)c(-c3ccccn3)c2)c(Cl)c1` [Vismodegib, vismodegib]: the GI50 is 39.8 µM in the data set on SK-MEL-2; 31.6 µM in the data set with A498; 31.6 µM with NCI/ADR-RES; 50.1 µM in the data set on NCI-H226; 39.8 µM with OVCAR-4; 63.1 µM in the data set on SW-620. Moreover, the GI50 in the data set on NCI-H522 was 25.1 µM; in the data set on MDA-MB-468 it was 19.9 µM; with KM12 it was 31.6 µM; with SN12C, 39.8 µM; in the data set on LOX IMVI, 39.8 µM; with MALME-3M it was 39.8 µM. Besides, the GI50 with SK-MEL-28 is 39.8 µM; with CAKI-1 it was 79.4 µM; with A549/ATCC it was 39.8 µM.
